The nature of series [1]: Phase I study: pharmacokinetics of Glufosfamide by 6 h intravenous infusion. Conditions: over the dose range studied, 3200-6000 mg/m^2. From the text:
Patients were ineligible if they had symptomatic brain metastasis; other nonmalignant systemic disease; an active, uncontrolled infection; preexisting nephrotoxicity of grade 3 or 4 (NCI Common Toxicity Criteria—NCI-CTC) resulting from previous therapy; or infection with HIV, HBV, or HCV. They were also ineligible if they were pregnant or nursing, or if they required steroid therapy.
This open-label, dose-escalation Phase I study was based on intravenous infusion of the drug in three cohorts of Japanese subjects with malignant solid tumors. Glufosfamide was administered intravenously over 6 h in a total volume of 1000 mL of normal saline at doses of 3200, 4500, and 6000 mg/m^2. One-quarter of the dose was administered during the first 30 min at a rate of 500 mL/h, with the remainder of the dose being administered over the subsequent 330 min at a rate of 136 mL/h. Glufosfamide was administered on day 1 once every 3 weeks. Antiemetic premedication was not mandatory in the protocol. Granulocyte colony-stimulating factor (G-CSF) was administered for febrile neutropenia, sepsis with neutropenia, or recurrent neutropenia of grade 4.
Pharmacokinetic sampling was performed for the first and second cycles.

A short description of series [2]: Phase I dose-escalation study: safety, DLT, MTD and RD. The series is classed as in vivo, human. How it is done: (§1) A medical history was obtained from each patient, and physical examinations and routine laboratory evaluations were performed before treatment initiation and weekly thereafter, Chest and other relevant x-rays were obtained during screening and after alternate cycles of treatment. Adverse events were monitored and recorded throughout the study and were graded according to NCI-CTC, version 3.0. The tumor response was assessed for measurable target lesions according to Response Evaluation Criteria in Solid Tumors (RECIST).
(§2) Antiemetic premedication was not mandatory in the protocol.
The starting dose of Glufosfamide was 3200, which was increased to 4500 and then to 6000 in subsequent cohorts of at least three patients. The following adverse events during cycle 1 were defined as DLTs (dose-limiting toxicities): neutropenia of grade 4 (ANC of <500/uL) for >7 days; febrile neutropenia (fever of >38 degrees C. with an ANC of <1000/uL); thrombocytopenia (platelet count of <25,000/uL); nausea or vomiting of grade > (or equal to) 3 despite maximal antiemetic therapy; and any other nonhematologic toxicity of grade > (or equal to) 3 considered drug-related. If any patient experienced a DLT during the first cycle, three additional patients were treated at the same dose. Patients who experienced a DLT could continue Glufosfamide therapy at the preceding dose level. Treatment in subsequent courses was reinitiated only after hematologic recovery (ANC of > (or equal to) 1500/uL, platelet count of > (or equal to) 100,000/uL) and resolution of all other toxicities to grade < (or equal to) 1 or baseline intensity. The MTD (maximum tolerated dose) was defined as the dose at which two or more patients experienced a DLT in the first cycle. The RD (recommended dose) was defined as the dose level immediately below the MTD. In accordance with the methods of the invention, both the RD and MTD (and intermediate doses) can be administered to patients, with the RD preferred for Japanese and other patients of Asian origin and the MID preferred for other patients.

Series [3] relates to solid tumors. Briefly: Phase I study: tumor response by RECIST. The series is classed as in vivo, human. How it is done: as §1, §2
Series [4] concerns pancreatic cancer. The note with it: pancreatic cancer patients relapsed after or not responding to gemcitabine; cited from earlier work.
For series [5] the following is noted: Caucasian patients, intravenous infusion; cited from earlier work.

As for `O=P(NCCCl)(NCCCl)O[C@@H]1O[C@H](CO)[C@@H](O)[C@H](O)[C@H]1O` [Glufosfamide, beta-D-glucosyl-isophosphoramide mustard], in series [1], the “dose linearity of pharmacokinetics” value is reported as “linear pharmacokinetics”. In addition, in series [2] (4500 mg/m^2, cycle 2, without infection, short-lived, 13 patients), the “patients with neutropenia of grade 4” value is on record as “only one patient”. The “patients with grade 4 anemia requiring red blood cell transfusion” value in series [2] (4500 mg/m^2, cycle 3) is on record as “one patient”. Also, the “patients with DLTs” value in series [2] (6000 mg/m^2, cycle 1, grade 3 metabolic acidosis, hypophosphatemia, hypokalemia) is given as “two of three treated patients experienced DLTs”. In addition, in series [2] (Japanese patients, 6 h iv infusion day 1 every 3 weeks, dose at which two or more patients had a DLT in cycle 1), the “MTD (maximum tolerated dose)” value worked out at 6000 mg/m^2. Also, in series [2] (Japanese patients, 6 h iv infusion every 3 weeks, dose level immediately below MTD), the “RD (recommended dose)” value was 4500 mg/m^2. In addition, in series [2] (all dose levels, generally transient and reversible), the predominant nonhematologic toxicities result was “fatigue, nausea, a high urinary concentration of beta 2 microglobulin, hypophosphatemia, hypokalemia, and metabolic acidosis”. For the same compound, the DLTs result in series [2] (two lowest doses (3200 and 4500 mg/m^2), cycle 1) is recorded as “No DLTs occurred”. In series [3] (among thirteen evaluable patients, advanced gall bladder cancer, 4500 mg/m^2, after two cycles), the partial response result is on record as “one partial response”. Moreover, the “subjects showing stabilization of disease” value in series [3] (among thirteen evaluable patients, colorectal (4), gastric, thymic cancer, thymoma, non-small cell lung cancer) is recorded as “eight subjects”. Moreover, the “patients with evidence of antitumor activity” value in series [3] (among thirteen patients evaluable for response) is “nine patients”. The “duration of partial response” value in series [3] (person, advanced gall bladder cancer, 4500 mg/m^2, two cycles) is “greater than five months”. Further, in series [4], the “Phase III trial outcome” value is given as “did not meet its endpoints” and the “anticancer activity in Phase III trial” value is given as “did exhibit anticancer activity in some patients”. In addition, the “dose that is well tolerated” value in series [5] is recorded as 6000 mg/m^2.
Regarding `O=P(O)(NCCCl)NCCCl` [IPM, isophosphoramide mustard], the “dose linearity of pharmacokinetics” value in series [1] is “linear pharmacokinetics”.

(Values after patent US20160143929A1, “ADMINISTRATION OF GL[…] THE TREATMENT OF CANCER” (Threshold Pharmaceuticals, Inc., priority 2008, published 2016).)
